Data on two compounds can be found in publication PMC11420946, “An Engineered Nisin Analogue with a Hydrophobic Moiety Attached at Position 17 Selectively Inhibits Enterococcus faecium Strains” (ACS Chemical Biology, 2024).

Series [1] deals with E. faecalis LMG16216 (VRE). The series can be described thus: Spot-on-lawn assay. Format: cell-based. The note with it: triplicate.
The subject of a further series is B. cereus CH-85. The series can be described thus: Spot-on-lawn assay. The note with it: triplicate. Format: cell-based.
For series [2], the system named is L. monocytogenes LMG10470. The series can be described thus: Spot-on-lawn assay. The format is cell-based. To be noted: triplicate.
A short description of series [3]: Spot-on-lawn assay to measure peptide-lipid II complex formation. Format: binding. The note with it: lipid II 300 μM, 2 μL spotted at edge of halo; lawns of E. faecium and S. aureus, overnight 37 °C. The protocol: To assess the interaction between the HPLC purified peptide and lipid II, an overnight culture was introduced into 0.8% GM17 medium for E. faecium or LB medium for S. aureus (w/v, temperature 45 °C) at a final concentration of 1% (v/v). Subsequently, this mixture was evenly distributed onto 10 mL plates. The binding affinity of the peptide and lipid II was further examined by applying purified lipid II (300 μM, 2 μL) to the periphery of the antibiotic inhibition halo. Briefly, HPLC purified antimicrobials were initially applied to the agar plate, and once the antimicrobial solution drops had dried, lipid II was spotted along the edge of the inhibition halo. The plates were then incubated overnight at 37 °C.

The subject of series [4] is E. faecium ATCC E1321 (AGRE). Nature of the series: Spot-on-lawn assay. The format is cell-based. The note with it: triplicate.
The subject of another series is Enterococcus faecium. The series can be described thus: Agar well diffusion assay against Enterococcus faecium. Format: cell-based. The note with it: for Antibacterial activity against Enterococcus faecium (in words): Figure 5, HPLC-purified peptide, 30 μL of 0.1 mg mL^–1 per well. The procedure: (§1) To confirm that this procedure yields the modified nisin and at high purity, HPLC analysis of purified 47 was performed (Figure S2). Based on the area of the peaks, the purity of 47 is 96%. Subsequently, 30 μL of 0.1 mg mL^–1 purified compound was added to the well to assess their activity.
(§2) Cultures grown overnight were introduced into 0.8% LB agar for Listeria monocytogenes or GM17 agar for Enterococcus faecium at a temperature of 45 °C, reaching a final concentration of 0.1% (v/v). Subsequently, 30 mL of the mixture was poured onto the plate. Upon solidification of the agar, 8 mm wells were created, and 30 μL of the aforementioned clicked solutions was spotted into the wells. The agar plate underwent overnight incubation at 37 °C followed by measurement of inhibition zones. By comparing the antimicrobial impact of the click chemistry products in this screening assay, we assume that the yields of the different reactions are similar. Zone diameters were recorded in millimeters, with the zone area (πr^2) minus the well area (πr^2) measured in millimeters.[44]

Series [5] concerns S. aureus LMG15975 (MRSA). The series can be described thus: Spot-on-lawn assay. Format: cell-based. To be noted: triplicate.
For a further series, the system named is chymotrypsin. The series can be described thus: Effect of proteolytic enzymes on antibacterial activity: chymotrypsin. To be noted: 30 μL peptide 1 mg mL^–1 in agar well with 1 mg mL^–1 chymotrypsin, pH 7.2, overnight 30 °C; read-out inhibition zone area on L. lactis MG1363 versus no-enzyme control; three independent experiments. The protocol: (§3) Next the resistance against the proteolytic enzymes trypsin, chymotrypsin, and protease K was investigated by adding these enzymes in separate experiments to assay wells followed by overnight incubation at 30 °C.
(§4) The impact of proteolytic enzymes and temperature on antimicrobial activity was investigated using the representative strain L. lactis MG1363 through the agar well diffusion assay. Thirty microliters of the HPLC purified peptide (1 mg mL^–1) was directly introduced into the agar well containing a final concentration of 1 mg mL^–1 proteolytic enzymes (pH 7.2) or no proteolytic enzyme (control). The plates were incubated overnight at 30 °C followed by the measurement of inhibition zones. Temperature stability was assessed by incubating the peptide at 22, 55, 70, and 90 °C for the specified duration.

Another series relates to Escherichia coli CECT101. The series can be described thus: Spot-on-lawn assay. The format is cell-based. To be noted: triplicate.
Series [6] concerns E. faecium ATCC E1162 (ARE). The series can be described thus: Spot-on-lawn assay. To be noted: triplicate. The format is cell-based.
In a further series the test system is human red blood cells. The series can be described thus: Hemolysis assay. The format is cell-based. The note with it: 200 mg/L versus MIC. The protocol: Considering the potential therapeutic application of a bacteriocin, ensuring its safety is of critical importance. Previous studies have identified hemolytic activities in certain bacteriocins, such as listeriolysin S from Listeria monocytogenes([33]) and cytolysin from Enterococcus faecalis.[34] […] Therefore, a close evaluation of the safety of new bacteriocins is essential. In this study, a hemolytic activity assay was conducted to assess the safety of compounds 16 and 47. In this assay, human blood cells were incubated with varying concentrations of compound 16, compound 47, and nisin, ranging from 0.39 to 200 mg/L. Following a 1 h incubation at 37 °C, we measured the OD414 of the supernatants, and hemolytic activities were calculated, with 10% Triton X-100 serving as a positive control.
Erythrocytes were sourced from a healthy human volunteer donor, and whole human blood was subjected to centrifugation at 600g for 15 min. Subsequently, plasma was removed, and the erythrocytes were subjected to three washes with PBS (pH 7) by centrifugation at 600g for 15 min each. […] The supernatant was transferred to a 96-well plate, and absorbance was measured at a wavelength of 414 nm using a Thermo Scientific Varioskan LUX multimode microplate reader. The absorbance, relative to the positive control treated with 10% Triton X-100, was defined as the percentage of hemolysis.

Series [7] deals with Enterococcus faecium LMG16003 (VRE). The format is cell-based. The note with it: as stated in the abstract. The procedure:
Minimal inhibitory concentration (MIC) values were determined through broth microdilution following standard guidelines.[29]

Series [8] in a line: Effect of temperature on antibacterial activity (thermal stability). Format: physicochemical. To be noted: higher temperatures of 22, 55, 70, 90 °C, 8 h storage; read-out inhibition zone area on L. lactis MG1363 relative to 0 h; three independent experiments. The protocol:
Figure S4. Investigation of the thermal stability profile of nisin (compound 1) and compound 47. Thermal stability was evaluated across a temperature range from 22 to 90 °C within an 8-hour incubation period.
Relative antimicrobial activity of the peptides following exposure to different temperatures. The relative activity was determined by calculating the area at different time points divided by the area at the start point (labeled 0 h), multiplied by 100%. Three independent experiments were conducted.

A further series relates to L. monocytogenes TT82E. The series can be described thus: Spot-on-lawn assay. The format is cell-based. The note with it: triplicate.
Series [9] concerns E. faecium LMG16003 (VRE). Nature of the series: Spot-on-lawn assay. The format is cell-based. To be noted: triplicate.
The subject of a further series is S. aureus LMG10147. Nature of the series: Spot-on-lawn assay. The note with it: triplicate. The format is cell-based.
A further series concerns the target proteinase K (Parengyodontium album, UniProt P06873). The series can be described thus: Effect of proteolytic enzymes on antibacterial activity: proteinase K. To be noted: 30 μL peptide 1 mg mL^–1 in agar well with 1 mg mL^–1 proteinase K, pH 7.2, overnight 30 °C; read-out inhibition zone area on L. lactis MG1363 versus no-enzyme control; three independent experiments. The procedure: as §3, §4

The subject of series [10] is E. faecium ATCC U0317 (ACRE). Nature of the series: Spot-on-lawn assay. Format: cell-based. To be noted: triplicate.
In a further series the test system is E. faecium LMG11423. Nature of the series: Spot-on-lawn assay. The format is cell-based. To be noted: triplicate.
Another series has as its system Listeria monocytogenes. Nature of the series: Agar well diffusion assay against Listeria monocytogenes. The note with it: Figure 4, second round; 30 μL click reaction solution in 8 mm well, LB agar, overnight 37 °C; triplicate. Format: cell-based. The procedure:
as §1, §2
On the technique in general: A growth-free zone around the sample is the usual read-out of agar diffusion tests.

Each structure is given as a SMILES string. Converted amounts (≈) assume the structure as drawn.

Chain of proteinase K (P06873 106-384): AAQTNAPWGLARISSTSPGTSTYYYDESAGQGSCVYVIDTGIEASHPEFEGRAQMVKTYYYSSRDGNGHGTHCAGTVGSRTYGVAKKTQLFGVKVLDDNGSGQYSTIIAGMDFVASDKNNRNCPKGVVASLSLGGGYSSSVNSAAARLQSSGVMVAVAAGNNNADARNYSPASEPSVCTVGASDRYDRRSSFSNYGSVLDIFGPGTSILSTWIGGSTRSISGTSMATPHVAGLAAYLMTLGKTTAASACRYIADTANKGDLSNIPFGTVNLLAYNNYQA

As to `C=C(NC(=O)[C@@H](NC(=O)[C@H](Cc1c[nH]cn1)NC(=O)[C@@H](NC(=O)[C@H](CO)NC(=O)[C@@H]1CS[C@@H](C)[C@H]2NC(=O)[C@H](C)NC(=O)[C@H](NC(=O)[C@H](CCCCN)NC(=O)[C@@H](NC(=O)[C@H](CC(N)=O)NC(=O)[C@@H]3CS[C@@H](C)[C@@H](NC(=O)[C@H](CCCCN)NC(=O)[C@@H]4CS[C@@H](C)[C@@H](NC(=O)[C@@H]5CSC[C@@H](NC(=O)/C(=C/C)NC(=O)[C@@H](N)[C@@H](C)CC)C(=O)N[C@@H]([C@@H](C)CC)C(=O)NC(=C)C(=O)N[C@@H](CC(C)C)C(=O)N5)C(=O)N5CCC[C@H]5C(=O)NCC(=O)N4)C(=O)NCC(=O)N[C@@H](C)C(=O)N[C@@H](CC(C)C)C(=O)N[C@@H](CCn4cc(CCCc5ccccc5)nn4)C(=O)NCC(=O)N3)C(C)C)[C@H](C)SC[C@H](NC2=O)C(=O)N[C@@H](Cc2c[nH]cn2)C(=O)N1)[C@@H](C)CC)C(C)C)C(=O)N[C@@H](CCCCN)C(=O)O` [compound 47], the “Antimicrobial activity, diameter rating” value is listed as “++ (4–8 mm, + +)” in series [1]; “++ (4–8 mm, + +)” in the series on B. cereus CH-85; “++ (4–8 mm, + +)” in series [2]; “++++ (12–16 mm, ++++)” in series [4]; “+ (0–4 mm, +)” in series [5]; “+ (0–4 mm, +)” in the series with Escherichia coli CECT101. For the same compound, the “Antimicrobial activity, diameter rating” value in series [6] was “++++ (12–16 mm, ++++)”; with L. monocytogenes TT82E, “++ (4–8 mm, + +)”; in [9], “++++ (12–16 mm, ++++)”; with S. aureus LMG10147, “+ (0–4 mm, +)”; in series [10], “++++ (12–16 mm, ++++)”; with E. faecium LMG11423, “+++++ (16–20 mm, +++++)”. The “Binding to lipid II (effect of added purified lipid II on the inhibition halo)” value in series [3] is on record as “retained its ability to bind to lipid II”. Further, the “Antibacterial activity against Enterococcus faecium (in words)” value with Enterococcus faecium is “high potency of nisin against Enterococcus faecium was retained”. Further, the “Loss in antimicrobial activity after exposure to chymotrypsin” value with chymotrypsin is on record as 16%. In the series on human red blood cells, the “Concentration with minimal hemolytic activity (200 mg/L) relative to MIC against Enterococcus faecium” value amounted to 50 fold. Besides, the “MIC value against E. faecium strains” value in series [7] was found to be 3.8 µg/mL (≈ 1.1 µM). In series [8], the “Loss in antimicrobial activity on storage at elevated temperature” value is “Less than 40%”. In addition, the “Loss in antimicrobial activity after exposure to proteinase K” value at proteinase K is given as 77%.
In the case of `C=C(NC(=O)[C@@H](NC(=O)[C@H](Cc1c[nH]cn1)NC(=O)[C@@H](NC(=O)[C@H](CO)NC(=O)[C@@H]1CS[C@@H](C)[C@H]2NC(=O)[C@H](C)NC(=O)[C@H](NC(=O)[C@H](CCCCN)NC(=O)[C@@H](NC(=O)[C@H](CC(N)=O)NC(=O)[C@@H]3CS[C@@H](C)[C@@H](NC(=O)[C@H](CCCCN)NC(=O)[C@@H]4CS[C@@H](C)[C@@H](NC(=O)[C@@H]5CSC[C@@H](NC(=O)/C(=C/C)NC(=O)[C@@H](N)[C@@H](C)CC)C(=O)N[C@@H]([C@@H](C)CC)C(=O)NC(=C)C(=O)N[C@@H](CC(C)C)C(=O)N5)C(=O)N5CCC[C@H]5C(=O)NCC(=O)N4)C(=O)NCC(=O)N[C@@H](C)C(=O)N[C@@H](CC(C)C)C(=O)N[C@@H](CCn4cc(CCCCCCCC)nn4)C(=O)NCC(=O)N3)C(C)C)[C@H](C)SC[C@H](NC2=O)C(=O)N[C@@H](Cc2c[nH]cn2)C(=O)N1)[C@@H](C)CC)C(C)C)C(=O)N[C@@H](CCCCN)C(=O)O` [compound 16], the “Antimicrobial activity, diameter rating” value in series [1] is reported as “++ (4–8 mm, + +)”; in the series with B. cereus CH-85, “++ (4–8 mm, + +)”; in [2] it was “++ (4–8 mm, + +)”; in series [4], “++++ (12–16 mm, ++++)”; in [5], “+ (0–4 mm, +)”; in the series on Escherichia coli CECT101, “+ (0–4 mm, +)”. Also, the “Antimicrobial activity, diameter rating” value in series [6] is reported as “++++ (12–16 mm, ++++)”; with L. monocytogenes TT82E, “++ (4–8 mm, + +)”; in series [9], “++++ (12–16 mm, ++++)”; with S. aureus LMG10147, “+ (0–4 mm, +)”; in series [10] it was “++++ (12–16 mm, ++++)”; with E. faecium LMG11423 it was “+++++ (16–20 mm, +++++)”. The “Area1: area of the inhibition zone minus the well area, Enterococcus faecium” value with Enterococcus faecium (Figure 4, second round, 30 μL click reaction solution in 8 mm well, GM17 agar, overnight 37 °C, triplicate) came out at 51 mm^2. Also, the “Antibacterial activity against Enterococcus faecium (in words)” value in the series on Enterococcus faecium is recorded as “high potency of nisin against Enterococcus faecium was retained”. In the series on Listeria monocytogenes, the “Area2: area of the inhibition zone minus the well area, Listeria monocytogenes” value is recorded as 19 mm^2.
